Results as given in PMC5638823, “Structural insights into the competitive inhibition of the ATP-gated P2X receptor channel” (Nature Communications, 2017).

Biological target: T1, chicken P2X7 receptor (ckP2X7 WT) (Gallus gallus, UniProt A0A8V1A1T0)
T1 construct: gene P2RX7; ckP2X7 WT (NCBI XP_001235163), expressed in HEK-293 cells
Type: cell-based

T1 sequence (A0A8V1A1T0 entry or part of it): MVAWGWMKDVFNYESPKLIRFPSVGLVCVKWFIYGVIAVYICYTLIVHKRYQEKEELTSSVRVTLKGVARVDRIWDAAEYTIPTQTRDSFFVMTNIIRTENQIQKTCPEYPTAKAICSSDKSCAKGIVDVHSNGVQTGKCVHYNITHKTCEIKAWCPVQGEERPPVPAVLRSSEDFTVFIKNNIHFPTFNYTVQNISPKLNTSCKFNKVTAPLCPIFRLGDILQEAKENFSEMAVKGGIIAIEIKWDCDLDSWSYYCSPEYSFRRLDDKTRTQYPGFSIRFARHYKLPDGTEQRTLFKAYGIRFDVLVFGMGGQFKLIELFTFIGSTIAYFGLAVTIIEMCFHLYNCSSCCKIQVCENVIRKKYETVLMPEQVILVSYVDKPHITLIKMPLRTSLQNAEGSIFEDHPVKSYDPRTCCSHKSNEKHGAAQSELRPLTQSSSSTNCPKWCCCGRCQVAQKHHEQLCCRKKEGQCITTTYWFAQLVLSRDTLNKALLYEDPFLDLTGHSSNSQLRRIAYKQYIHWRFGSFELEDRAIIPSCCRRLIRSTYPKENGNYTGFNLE

Nc1ncnc2c1ncn2[C@@H]1O[C@H](COP(=O)(O)OP(=O)(O)OP(=O)(O)O)[C@@H](O)[C@H]1O [ATP]
whole-cell patch clamp, ATP-evoked currents in transfected HEK-293 cells: ATP activated biphasic currents and TNP-ATP blocked ATP-dependent currents
